Assay results: ChEMBL document CHEMBL4477252, “Optimization of microtubule affinity regulating kinase (MARK) inhibitors with improved physical properties” (Bioorg Med Chem Lett, 2016)

What was measured:
[1] = target: T1, Cytoplasmic tyrosine-protein kinase BMX (Homo sapiens, UniProt P51813); test: Inhibition of full-length recombinant human His-tagged BMX expressed in baculovirus expression system by Z'-LYTE assay
T1 sequence (P51813 whole entry): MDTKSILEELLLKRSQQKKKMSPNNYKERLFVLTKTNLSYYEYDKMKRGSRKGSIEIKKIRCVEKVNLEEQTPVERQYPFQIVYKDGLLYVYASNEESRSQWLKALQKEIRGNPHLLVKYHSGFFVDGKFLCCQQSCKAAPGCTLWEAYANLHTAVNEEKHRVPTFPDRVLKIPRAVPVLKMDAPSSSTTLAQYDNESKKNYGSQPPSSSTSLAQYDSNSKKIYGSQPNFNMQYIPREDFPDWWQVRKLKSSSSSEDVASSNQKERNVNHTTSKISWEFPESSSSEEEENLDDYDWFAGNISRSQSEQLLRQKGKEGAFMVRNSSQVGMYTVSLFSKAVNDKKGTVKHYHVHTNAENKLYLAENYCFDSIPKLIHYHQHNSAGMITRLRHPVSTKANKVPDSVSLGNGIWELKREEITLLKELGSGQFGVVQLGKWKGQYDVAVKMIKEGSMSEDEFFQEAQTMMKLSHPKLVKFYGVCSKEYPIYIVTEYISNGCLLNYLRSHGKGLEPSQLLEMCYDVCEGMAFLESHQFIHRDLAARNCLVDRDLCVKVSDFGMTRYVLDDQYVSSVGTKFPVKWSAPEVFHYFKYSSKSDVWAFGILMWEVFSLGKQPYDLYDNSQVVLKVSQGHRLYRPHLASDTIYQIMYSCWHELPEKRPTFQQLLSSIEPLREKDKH

[2] = target: T2, Serine/threonine-protein kinase Chk1 (Homo sapiens, UniProt O14757); test: Inhibition of full-length recombinant human His-tagged CHEK1 expressed in baculovirus expression system by Z'-LYTE assay
T2 sequence (O14757 whole entry): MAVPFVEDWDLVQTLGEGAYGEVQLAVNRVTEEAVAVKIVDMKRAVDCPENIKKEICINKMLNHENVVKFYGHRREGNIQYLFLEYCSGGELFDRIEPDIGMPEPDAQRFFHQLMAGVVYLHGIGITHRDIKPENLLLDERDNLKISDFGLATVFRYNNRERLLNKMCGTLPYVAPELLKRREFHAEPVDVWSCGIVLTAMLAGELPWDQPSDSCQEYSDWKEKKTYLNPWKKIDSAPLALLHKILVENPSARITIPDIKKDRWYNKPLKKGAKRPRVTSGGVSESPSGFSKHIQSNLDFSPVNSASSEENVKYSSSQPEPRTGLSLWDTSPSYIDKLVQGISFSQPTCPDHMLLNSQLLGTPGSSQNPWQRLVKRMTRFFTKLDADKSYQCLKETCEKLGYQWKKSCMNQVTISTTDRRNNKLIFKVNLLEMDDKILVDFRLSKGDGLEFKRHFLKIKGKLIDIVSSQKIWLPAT

[3] = target: MDR1 (ABCB1, P-glycoprotein) (Homo sapiens, UniProt P08183); test: Substrate activity at human MDR1 expressed in LLC-PK1 cells assessed as efflux ratio of permeability across basolateral to apical over apical to basolateral side at 5 uM; assay type: ADME, cell-based
[4] = target: T3, Tyrosine-protein kinase ITK/TSK (Homo sapiens, UniProt Q08881); test: Inhibition of full-length recombinant human GST-tagged ITK expressed in baculovirus expression system by Z'-LYTE assay
T3 sequence (Q08881 whole entry): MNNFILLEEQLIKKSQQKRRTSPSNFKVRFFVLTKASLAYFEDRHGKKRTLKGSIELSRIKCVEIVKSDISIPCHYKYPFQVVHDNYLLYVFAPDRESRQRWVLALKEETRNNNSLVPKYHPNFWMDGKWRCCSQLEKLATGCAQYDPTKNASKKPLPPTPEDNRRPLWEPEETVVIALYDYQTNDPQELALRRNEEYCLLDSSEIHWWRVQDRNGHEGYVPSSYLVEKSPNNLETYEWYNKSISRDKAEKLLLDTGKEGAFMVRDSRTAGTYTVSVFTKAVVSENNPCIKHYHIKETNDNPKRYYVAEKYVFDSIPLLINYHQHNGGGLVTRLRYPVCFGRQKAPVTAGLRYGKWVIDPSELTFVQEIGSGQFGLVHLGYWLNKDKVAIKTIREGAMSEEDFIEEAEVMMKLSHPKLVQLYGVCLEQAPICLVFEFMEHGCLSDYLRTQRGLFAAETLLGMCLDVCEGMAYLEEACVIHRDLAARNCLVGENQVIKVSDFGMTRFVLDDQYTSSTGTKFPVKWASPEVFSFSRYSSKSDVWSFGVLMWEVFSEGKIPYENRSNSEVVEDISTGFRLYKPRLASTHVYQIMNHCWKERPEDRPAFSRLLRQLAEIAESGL

Ephrin type-B receptor 2 = target: T4, Ephrin type-B receptor 2 (Homo sapiens, UniProt P29323); test: Inhibition of recombinant human GST-tagged cytoplasmic EPHB2 expressed in baculovirus expression system by Z'-LYTE assay
T4 sequence (P29323 whole entry): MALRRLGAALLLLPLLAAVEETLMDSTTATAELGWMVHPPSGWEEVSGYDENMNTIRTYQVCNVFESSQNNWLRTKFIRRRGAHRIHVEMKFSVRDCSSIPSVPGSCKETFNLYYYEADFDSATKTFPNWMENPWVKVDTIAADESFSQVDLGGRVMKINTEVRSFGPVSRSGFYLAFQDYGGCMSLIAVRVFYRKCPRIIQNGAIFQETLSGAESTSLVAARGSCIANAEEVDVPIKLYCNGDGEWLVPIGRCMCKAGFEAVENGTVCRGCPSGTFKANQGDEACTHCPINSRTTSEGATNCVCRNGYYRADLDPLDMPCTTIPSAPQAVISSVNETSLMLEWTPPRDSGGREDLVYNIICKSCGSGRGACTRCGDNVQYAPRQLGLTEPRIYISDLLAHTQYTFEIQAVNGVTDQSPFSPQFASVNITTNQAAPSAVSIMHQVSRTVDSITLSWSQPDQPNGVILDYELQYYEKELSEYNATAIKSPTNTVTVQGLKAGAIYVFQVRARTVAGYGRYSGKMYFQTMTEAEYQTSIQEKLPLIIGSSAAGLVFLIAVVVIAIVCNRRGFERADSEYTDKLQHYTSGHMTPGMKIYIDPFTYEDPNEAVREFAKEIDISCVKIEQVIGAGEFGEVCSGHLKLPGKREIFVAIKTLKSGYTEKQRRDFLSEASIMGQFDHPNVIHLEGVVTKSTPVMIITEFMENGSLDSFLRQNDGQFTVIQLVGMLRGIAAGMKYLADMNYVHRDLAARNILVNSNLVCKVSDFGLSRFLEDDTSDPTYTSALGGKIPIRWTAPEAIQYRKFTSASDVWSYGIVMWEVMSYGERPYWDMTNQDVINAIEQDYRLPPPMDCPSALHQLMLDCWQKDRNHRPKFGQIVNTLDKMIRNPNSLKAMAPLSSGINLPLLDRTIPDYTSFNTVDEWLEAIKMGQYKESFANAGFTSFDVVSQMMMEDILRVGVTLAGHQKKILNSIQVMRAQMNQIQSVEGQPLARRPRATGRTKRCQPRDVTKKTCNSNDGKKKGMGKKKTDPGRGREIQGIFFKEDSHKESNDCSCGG

MDR1 (ABCB1, P-glycoprotein), sequence (P08183 whole entry): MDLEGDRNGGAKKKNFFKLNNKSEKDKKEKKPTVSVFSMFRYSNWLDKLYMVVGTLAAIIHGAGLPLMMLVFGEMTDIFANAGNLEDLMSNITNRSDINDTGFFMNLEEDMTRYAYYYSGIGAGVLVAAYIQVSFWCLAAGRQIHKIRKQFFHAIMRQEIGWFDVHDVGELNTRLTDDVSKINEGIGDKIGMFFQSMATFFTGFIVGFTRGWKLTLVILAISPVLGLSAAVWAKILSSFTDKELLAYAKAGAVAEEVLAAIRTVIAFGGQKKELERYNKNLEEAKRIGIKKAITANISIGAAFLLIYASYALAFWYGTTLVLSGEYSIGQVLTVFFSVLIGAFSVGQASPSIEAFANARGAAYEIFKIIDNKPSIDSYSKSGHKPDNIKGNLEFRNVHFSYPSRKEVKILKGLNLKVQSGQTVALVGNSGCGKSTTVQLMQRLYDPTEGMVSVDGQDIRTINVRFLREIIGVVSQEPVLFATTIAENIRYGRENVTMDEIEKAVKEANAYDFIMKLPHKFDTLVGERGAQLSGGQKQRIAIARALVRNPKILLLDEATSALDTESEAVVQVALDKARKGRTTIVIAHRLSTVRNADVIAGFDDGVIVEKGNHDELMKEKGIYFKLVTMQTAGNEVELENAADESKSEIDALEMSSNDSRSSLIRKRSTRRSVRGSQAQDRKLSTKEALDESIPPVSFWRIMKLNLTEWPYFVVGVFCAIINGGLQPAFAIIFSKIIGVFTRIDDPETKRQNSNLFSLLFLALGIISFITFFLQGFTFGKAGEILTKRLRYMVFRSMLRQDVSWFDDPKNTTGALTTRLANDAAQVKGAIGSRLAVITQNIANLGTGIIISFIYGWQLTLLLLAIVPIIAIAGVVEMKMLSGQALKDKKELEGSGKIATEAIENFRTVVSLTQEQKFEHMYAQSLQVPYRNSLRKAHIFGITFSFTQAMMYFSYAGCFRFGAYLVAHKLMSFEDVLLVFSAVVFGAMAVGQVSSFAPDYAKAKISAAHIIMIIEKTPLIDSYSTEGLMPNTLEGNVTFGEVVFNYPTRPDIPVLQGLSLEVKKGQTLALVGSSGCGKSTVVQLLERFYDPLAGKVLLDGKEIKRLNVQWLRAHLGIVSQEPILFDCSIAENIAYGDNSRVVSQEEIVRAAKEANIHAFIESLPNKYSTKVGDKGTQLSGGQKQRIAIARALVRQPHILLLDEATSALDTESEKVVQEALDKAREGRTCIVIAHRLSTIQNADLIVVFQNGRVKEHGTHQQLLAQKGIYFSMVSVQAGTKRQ

SMILES | IC50 [1] | IC50 [2] | efflux ratio at 5 µM [3] | IC50 [4] | IC50 (Ephrin type-B receptor 2)
Cn1cc(-c2cnc3c(-c4csc(C(=O)N[C@@H]5CCCC[C@@H]5N)c4)cnn3c2)cn1 (racemic) | 3.5 nM | 2.2 nM | 24 | 26 nM | 2.9 nM
Cn1cc(-c2cnc3c(-c4csc(C(=O)NCC(F)(F)F)c4)cnn3c2)cn1 | 270 nM | 190 nM | 1.4 | 94 nM | 36 nM
Cc1sc(C(=O)N[C@@H]2[C@H](N)CCCC2(F)F)cc1-c1cnn2cc(Cl)cnc12 | 9800 nM | 200 nM | 2.9 | 4200 nM | 3800 nM
O=C(NCC(F)(F)F)c1cc(-c2cnn3cc(-c4ccc(OCCN5CCCCC5)cc4)cnc23)cs1 | 410 nM | 57 nM | – | 26 nM | < 10 nM
